In brackets after ≈: the same amount, converted by molar mass. Entries after “also recorded” stand apart in the source; their conditions may differ.
How the values were obtained:
[1] = test system: mononuclear cells from normal bone marrow (GM-CFC)
[2] = test system: human myeloid cell line KBM-3; assay: cells
[3] = test system: GM-CFC from normal human bone marrow
HL-60/AMSA = assay: cells; assay type: cell-based; details: Homo sapiens
KBM-3/DOX = assay: cells; assay type: cell-based, human; details: Homo sapiens
[4] = test system: mononuclear cells from normal bone marrow (GM-CFC); assay: cells; details: Homo sapiens, 1 h
[5] = Stability of frozen stock solution; assay type: physicochemical; details: frozen at -80° C., stock solution 265 uM
Procedure: In the initial experiments, acetaldoifosphamide (1-C) was weighed and dissolved in Dulbecco's phosphate-buffered saline (pH 7.4) (GIBCO, Grand Island, N.Y.) supplemented with Ca++ (10 mg %) and glucose (100 mg %) (enriched PBS) immediately prior to each experiment. […] In subsequent experiments a frozen stock solution was used; aliquots were thawed as necessary immediately prior to use.

in vitro = details: human, bone marrow gm-cfc
KBM-3 = assay: Clonogenic assay, drug in agar, prolonged exposure (Table 8, FIG. 11); assay type: cell-based; details: Homo sapiens, drug added to agar plates
[6] = test system: GM-CFC from normal human bone marrow; assay: Long-term suspension culture: GM-CFC regrowth on autologous irradiated adherent cell layers (Table 9); assay type: cell-based; details: for GM-CFC × 10^-3 per adherent cell layer: end of culture period; for GM-CFC × 10^-3 per adherent cell layer / GM-CFC × 10^-3 per culture: average ± S.D.
Procedure: (§1) A modification of previously reported techniques was used (Gartner and Kaplan, 1980; Greenberg et al., 1981; Potter et al., 1981; Coulombel et al., 1983). Briefly, 1×10^7 mononuclear bone marrow cells were suspended in 10 ml IMDM supplemented with 12.5% horse serum, 12.5% FCS and 5×10^-6 M hydrocortisone succinate (HyC) (Abbott Laboratories, N. Chicago, Ill.) in 25 cm^2 tissue culture flasks (Corning Glass Works, Corning N.Y.). After 8 to 10 days an adherent fibroblast (feeder) layer, supplying a hemopoietic microenvironment, was established. The non-adherent cells were washed off, and the feeder layer was irradiated with 3.0 Gy gamma-irradiation at a dose rate of 3.3 Gy per min. A second bone marrow sample was obtained from the same donor, and low-density mononuclear cells were isolated as above. The cells were exposed for 60 min at 37° C. to increasing drug concentrations. After two washings, the cells were suspended in 10 ml IMDM with 10% FCS and 5×10^-6 M HyC, and then added to the previously established feeder layers. All cultures were established in duplicate, and all flasks were incubated for five weeks at 37° C. in an atmosphere of 5% CO2 and 12% O2 balanced with N2 to 100%. Twice weekly, 85% of the medium was replaced with fresh medium. Immediately after drug exposure, and at weekly intervals up to 5 weeks, one ml of the cell suspension was removed and monitored for the presence of GM-CFC using the soft agar assay as described above. The total number of surviving GM-CFC formed from untreated cells served as a quality control of the culture system and as a reference (positive controls) for calculating the surviving GM-CFC fraction in cultures of drug-treated cells Flasks containing irradiated stromal cell layers alone were subjected to the same twice-weekly media changes and were monitored weekly for possible regrowth of GM-CFC (negative controls). After five weeks, all non-adherent cells were removed from the flasks. The feeder layers were carefully rinsed twice with 10 ml of PBS, then treated with 0.2% trypsin in EDTA solution (GIBCO Laboratories, Grand Island, N.Y.) for 2-3 min at 37° C. After washing, the resulting single cell suspensions were assayed for GM-CFC.
(§2) ^a Average values ± S.D. for three experiments. In each experiment
(§3) the cultures were conducted in duplicates.
(§4) ^b At the end of the culture period. For details see Materials and […]

[7] = as above; assay type: cell-based, human; details: human, bone marrow gm-cfc; concentration used in long-term suspension cultures; read-out: detectable GM-CFC abolished
Procedure: as §1, §2, §3, §4

KBM-3/AMSA = assay: cells; assay type: cell-based, human; details: Homo sapiens
[8] = test system: KBM-3 leukemic CFC and GM-CFC in bone marrow; assay: cells; assay type: cell-based, human
HL-60 = assay: Clonogenic assay, drug in agar, prolonged exposure (Table 8, FIG. 11); assay type: cell-based; details: Homo sapiens, drug added to agar plates
[9] = test system: human myeloid cell line KBM-3
[10] = Stability in phosphate-buffered saline
[11] = background; cited from earlier work
[12] = test system: L1210 lymphatic leukemia cells; assay: cells; assay type: cell-based, murine; details: Mus musculus, L1210, 72 h, read-out: ED50

CC(=O)OC(CCOP(=O)(NCCCl)NCCCl)OC(C)=O [acetaldoifosphamide]
effect of erythrocytes on activity [1]: decreases the activity | cytotoxicity relative to 4-HC on a molar basis ([1]; human): 8-10 times | IC90 [2]: ~1300 nM | GM-CFC doubling time [3]: 6 to 12 h | GM-CFC recovery kinetics / progenitor sparing, in words [3]: has a sparing effect on very immature hemopoietic stem cells | delay in proliferation of the GM-CFC pool [3]: 24 h | detectable GM-CFC after highest concentration [3]: initially had no detectable GM-CFC, however after day two rapid GM-CFC proliferation was apparent | IC50 (HL-60/AMSA): 560 nM | IC50 (KBM-3/DOX): 160 nM | IC50 [4]: 11500 to 12500 nM | retention of full cytotoxic activity on storage [5]: retained full cytotoxic activity for more than four months | cytotoxicity at 1 h (in vitro): 95 to 100% | IC50 (KBM-3): 200 nM | GM-CFC × 10^-3 per adherent cell layer ([6]; 26.4 uM): 0.22 ± 0.09 GM-CFC × 10^-3 per adherent ce | GM-CFC × 10^-3 per culture ([6]; 26.4 uM, week 0): 2.8 ± 1.5 GM-CFC × 10^-3 per culture | GM-CFC × 10^-3 per culture ([6]; 26.4 uM, week 1): 15.0 ± 1.8 GM-CFC × 10^-3 per culture | GM-CFC × 10^-3 per culture ([6]; 26.4 uM, week 2): 18.2 ± 4.6 GM-CFC × 10^-3 per culture | GM-CFC × 10^-3 per culture ([6]; 26.4 uM, week 3): 2.9 ± 1.1 GM-CFC × 10^-3 per culture | GM-CFC × 10^-3 per culture ([6]; 26.4 uM, week 4): 0.8 ± 0.4 GM-CFC × 10^-3 per culture | GM-CFC × 10^-3 per culture ([6]; 26.4 uM, week 5): 0.09 ± 0.03 GM-CFC × 10^-3 per culture | GM-CFC content of adherent cell layer vs controls ([6]; 33 uM, end of five weeks): contained more GM-CFC than the controls | GM-CFC × 10^-3 per adherent cell layer ([6]; 33.0 uM): 0.12 ± 0.04 GM-CFC × 10^-3 per adherent ce | GM-CFC × 10^-3 per culture ([6]; 33.0 uM, week 0): 0.1 ± 0.04 GM-CFC × 10^-3 per culture | GM-CFC × 10^-3 per culture ([6]; 33.0 uM, week 1): 7.7 ± 1.3 GM-CFC × 10^-3 per culture | GM-CFC × 10^-3 per culture ([6]; 33.0 uM, week 2): 18.6 ± 2.5 GM-CFC × 10^-3 per culture | GM-CFC × 10^-3 per culture ([6]; 33.0 uM, week 3): 2.6 ± 0.3 GM-CFC × 10^-3 per culture | GM-CFC × 10^-3 per culture ([6]; 33.0 uM, week 4): 1.1 ± 0.3 GM-CFC × 10^-3 per culture | GM-CFC × 10^-3 per culture ([6]; 33.0 uM, week 5): 0.13 ± 0.06 GM-CFC × 10^-3 per culture | GM-CFC content of adherent cell layer vs controls ([6]; 39.6 uM, end of five weeks): had the same GM-CFC content as the controls | GM-CFC × 10^-3 per adherent cell layer ([6]; 39.6 uM): 0.06 ± 0.03 GM-CFC × 10^-3 per adherent ce | GM-CFC × 10^-3 per culture ([6]; 39.6 uM, week 0): 0.3 ± 0.2 GM-CFC × 10^-3 per culture | GM-CFC × 10^-3 per culture ([6]; 39.6 uM, week 1): 16.8 ± 7.6 GM-CFC × 10^-3 per culture | GM-CFC × 10^-3 per culture ([6]; 39.6 uM, week 2): 18.5 ± 6.5 GM-CFC × 10^-3 per culture | GM-CFC × 10^-3 per culture ([6]; 39.6 uM, week 3): 3.9 ± 1.3 GM-CFC × 10^-3 per culture | GM-CFC × 10^-3 per culture ([6]; 39.6 uM, week 4): 0.8 ± 0.3 GM-CFC × 10^-3 per culture | GM-CFC × 10^-3 per culture ([6]; 39.6 uM, week 5): 0.10 ± 0.02 GM-CFC × 10^-3 per culture | number of GM-CFC in non-adherent and adherent population ([6]; 53 uM, end of five weeks): subnormal number of GM-CFC | GM-CFC × 10^-3 per adherent cell layer ([6]; 53.0 uM): 0.03 ± 0.01 GM-CFC × 10^-3 per adherent ce | GM-CFC × 10^-3 per culture ([6]; 53.0 uM, week 0): 0 GM-CFC × 10^-3 per culture | GM-CFC × 10^-3 per culture ([6]; 53.0 uM, week 1): 0.2 ± 0.0 GM-CFC × 10^-3 per culture | GM-CFC × 10^-3 per culture ([6]; 53.0 uM, week 2): 1.2 ± 0.2 GM-CFC × 10^-3 per culture | GM-CFC × 10^-3 per culture ([6]; 53.0 uM, week 3): 0.3 ± 0.1 GM-CFC × 10^-3 per culture | GM-CFC × 10^-3 per culture ([6]; 53.0 uM, week 4): 0.06 ± 0.02 GM-CFC × 10^-3 per culture | GM-CFC × 10^-3 per culture ([6]; 53.0 uM, week 5): 0.006 ± 0.002 GM-CFC × 10^-3 per culture | IC99 ([6]; Homo sapiens, 1 h, GM-CFC): 33 µM | IC100 ([6]; Homo sapiens, 1 h, GM-CFC): 53 µM | time to recovery of GM-CFC to control level ([6]; after bone marrow exposure): ≤ 2 weeks | GM-CFC recovery to control levels ([6]; normal bone marrow, concentration abolishing more than 99% of GM-CFC): two to three weeks | cytotoxicity at 1 h [7]: > 99% | IC50 (KBM-3/AMSA): 680 nM | regrowth / elimination of leukemic cells [8]: leukemic cell proliferation was not evident; also recorded: no regrowth of leukemic CFC was observed; also recorded: the leukemia was completely eliminated with full recovery of GM-CFC production | log reduction at 39.6 µM ([8]; Homo sapiens, 1 h, read-out: reduction of leukemic cells): > 5 | IC50 (HL-60): 300 nM | activity against normal marrow GM-CFC versus leukemic myeloid CFC (KBM-3) [9]: more active against normal marrow GM-CFC than against leukemic myeloid CFC | dependence of cytotoxicity on cell concentration [9]: a 20-fold increase in cell concentration results in only a two-fold decrease in cytotoxicity | increase in clonogenic KBM-3 cell survival [9]: 2 fold | half-life ([10]; pbs, pH 7.4): > 80 h | stability in saline solution ([10]; saline solution): stable in saline solution

O=P1(N(CCCl)CCCl)NCCCO1 (stereo not drawn) [Cyclophosphamide, cyclophosphamide, reference compound]
therapeutic index, in words [11]: higher therapeutic index than must other mustard-type alkylating agents | IC50 [12]: 20 µg/mL (≈ 76.6 µM)

Reference: US5055459A, “Selective elimination of malignant cells from bone marrow by bis (acyloxy) propylphosphoramidates” (Board of Regents, The University of Texas, priority 1989, dated 1991)
